Laboratory results published in patent US4530791A, “β-Lactam antibiotics” (Kowa Co., Ltd., priority 1979, dated 1985).
Converted amounts (≈) assume the structure as drawn. Read-outs that look alike come from different tables or passages of the source.

Experiments:
Bacillus subtilis 6633 = assay: Antibacterial spectrum (minimum inhibitory concentration); format: cell-based
From the text: (§1) The antibacterial spectra against various microorganisms are shown in Table 2 in comparison with those of aminobenzyl penicillin (AB-Pc) and cefoxitin (CFX).

Citrobacter 1 (PC ase) = assay: as above; format: cell-based
From the text: as §1

Citrobacter 24 (CS ase) [1] = assay: as above; format: cell-based
From the text: as §1

[2] = system: Enterobacter aerogenes 972; assay: as above; format: cell-based; conditions: Klebsiella aerogenes
From the text: as §1

Enterobacter cloacae 977 = assay: as above; format: cell-based
From the text: as §1

[3] = system: Escherichia coli EC-1 (PC ase I); assay: as above; format: cell-based
From the text: as §1

[4] = system: Escherichia coli EC-59 (PC ase II); assay: as above; format: cell-based
From the text: as §1

[5] = system: Escherichia coli EC-68 (PC ase IV); assay: as above; format: cell-based
From the text: as §1

[6] = system: Excherichia coli NIHJ JC-2; assay: as above; format: cell-based
From the text: as §1

Hafnia alvei 978 = assay: as above; format: cell-based
From the text: as §1

Klebsiella 25 (PC ase) = assay: as above; format: cell-based
From the text: as §1

Klebsiella 32 (CS ase) = assay: as above; format: cell-based
From the text: as §1

[7] = system: Klebsiella pneumoniae 602; assay: as above; format: cell-based
From the text: as §1

Proteus inconstans Km115 = assay: as above; format: cell-based; conditions: Providencia alcalifaciens
From the text: as §1

Proteus morganii 3168 = assay: as above; format: cell-based; conditions: Morganella morganii
From the text: as §1

Proteus rettgari 13501 = assay: as above; format: cell-based
From the text: as §1

Proteus vulgaris 874 = assay: as above; format: cell-based
From the text: as §1

[8] = system: Pseudomonas aeruginosa 10490; assay: as above; format: cell-based
From the text: as §1

[9] = system: Pseudomonas aeruginosa A-3; assay: as above; format: cell-based; conditions: A3
From the text: as §1

Pseudomonas putida 5121 = assay: as above; format: cell-based
From the text: as §1

Serratia marcescens NHL = assay: as above; format: cell-based
From the text: as §1

[10] = system: Staphylococcus aureus 209P JC-1; assay: as above; format: cell-based
From the text: as §1

[11] = system: Staphylococcus epidermidis 1228; assay: as above; format: cell-based
From the text: as §1

[12] = Stability: half-life period at different values of pH (ultraviolet absorption spectroscopy); format: physicochemical; conditions: read-out: half-life period t1/2 (converted)
From the text: (11) Stability: The half-life period at different values of pH are as follows: […]
pH 4.0-7.0: Mcllvaine's buffer solution (sodium phosphate-citric acid) pH 10.0: 0.1M sodium carbonate-sodium hydrogen carbonate buffer solution […]
Ultraviolet absorption spectroscopy
(9) Stability: The half-life period at different values of pH are as follows:
The solvent and measurement are the same as in the substance KA-6643-A.

Solubility in solvent = format: physicochemical
Citrobacter 24 (CS ase) [13] = assay: Antibacterial activity-improving action against β-lactam-resistant bacteria (disc, inhibiting zone); format: cell-based; conditions: Medium including Citrobacter 24; AB-Pc 1 mg/ml, KA-6643-A or -B 10 γ/ml, alone or combined; 8 mm disc, 37° C., 18 hours
Procedure: (§2) In the Penassay agar (12 g of which was dissolved in 500 ml of distilled water, Kyoei Pharm. Co., Ltd.) were inoculated Escherichia coli EC-1 (PC ase) and citrobacter 24 (CS ase) which were β-lactamase-producing organisms, and 10 ml of the inoculated medium was flowed on a Petri dish of 9 cm in diameter and solidified to give a test medium.
(§3) In this agar medium were placed pulp discs of 8 mm in diameter into which was introduced with […] of aqueous solutions of antibiotics, respectively, followed by culturing at 37° C. for 18 hours and then measuring the diameter of an inhibiting zone around each disc.

[14] = system: Escherichia coli EC-1 (PC ase); assay: as above; format: cell-based; conditions: Medium including E. coli EC-1; AB-Pc 1 mg/ml, KA-6643-A or -B 10 γ/ml, alone or combined; 8 mm disc, 37° C., 18 hours
Procedure: as §2, §3

[15] = target: β-lactamase enzyme penicillin amidohydrolase EC 3.5.2.6; assay: β-Lactamase-inhibitory activity; format: biochemical; conditions: method of C. Reading and M. Cole
Procedure: When using as β-lactamase enzyme penicillin amidohydrolase EC 3.5.2.6 (Tokyo Chem. Syn. Co., Ltd.) derived from bacteria belonging to the genus Bacillus, the I50 value of the substance KA-6643-A was 0.5 ng/ml and that of the substance KA-6643-B was 12.8 ng/ml.
The I50 value was measured in accordance with the method of C. Reading and M. Cole [Antimicr. Agents and Chemoth. 11, 852-857 (1977)].

[16] = cited from earlier work
[17] = mcilvaine's buffer, pH 4.0, Mcllvaine's buffer
[18] = mcilvaine's buffer, pH 6.0, Mcllvaine's buffer
[19] = mcilvaine's buffer, pH 7.0, Mcllvaine's buffer
[20] = pH 10.0, 0.1M sodium carbonate-sodium hydrogen carbonate buffer
[21] = organic solvents: acetone, chloroform, ethyl acetate, petroleum ether

Structure (SMILES)	MIC (Bacillus subtilis 6633)	MIC (Citrobacter 1 (PC ase))	MIC (Citrobacter 24 (CS ase) [1])	MIC [2]	MIC (Enterobacter cloacae 977)	MIC [3]	MIC [4]	MIC [5]	MIC [6]	MIC (Hafnia alvei 978)	MIC (Klebsiella 25 (PC ase))	MIC (Klebsiella 32 (CS ase))	MIC [7]	MIC (Proteus inconstans Km115)	MIC (Proteus morganii 3168)	MIC (Proteus rettgari 13501)	MIC (Proteus vulgaris 874)	MIC [8]	MIC [9]	MIC (Pseudomonas putida 5121)	further results
CC1(C)S[C@@H]2[C@H](NC(=O)[C@H](N)c3ccccc3)C(=O)N2[C@H]1C(=O)O [AB-Pc, aminobenzyl penicillin, reference compound]	≤ 0.025 µg/mL	> 100 µg/mL	> 100 µg/mL	6.25 µg/mL (≈ 17.9 µM)	100 µg/mL (≈ 286 µM)	> 100 µg/mL	> 100 µg/mL	> 100 µg/mL	6.25 µg/mL (≈ 17.9 µM)	50 µg/mL (≈ 143 µM)	> 100 µg/mL	> 100 µg/mL	12.5 µg/mL (≈ 35.8 µM)	100 µg/mL (≈ 286 µM)	> 100 µg/mL	0.2 µg/mL (≈ 0.572 µM)	> 100 µg/mL	100 µg/mL (≈ 286 µM)	> 100 µg/mL	> 100 µg/mL	MIC (Serratia marcescens NHL): 50 µg/mL (≈ 143 µM); MIC [10]: 0.05 µg/mL (≈ 0.143 µM); MIC [11]: 0.78 µg/mL (≈ 2.23 µM)
CO[C@@]1(NC(=O)Cc2cccs2)C(=O)N2C(C(=O)O)=C(COC(N)=O)CS[C@@H]21 [CFX, cefoxitin, reference compound]	1.56 µg/mL (≈ 3.65 µM)	> 100 µg/mL	> 100 µg/mL	> 100 µg/mL	> 100 µg/mL	3.13 µg/mL (≈ 7.32 µM)	6.25 µg/mL (≈ 14.6 µM)	6.25 µg/mL (≈ 14.6 µM)	6.25 µg/mL (≈ 14.6 µM)	6.25 µg/mL (≈ 14.6 µM)	6.25 µg/mL (≈ 14.6 µM)	> 100 µg/mL	0.78 µg/mL (≈ 1.82 µM)	6.25 µg/mL (≈ 14.6 µM)	6.25 µg/mL (≈ 14.6 µM)	1.56 µg/mL (≈ 3.65 µM)	6.25 µg/mL (≈ 14.6 µM)	> 100 µg/mL	> 100 µg/mL	> 100 µg/mL	MIC (Serratia marcescens NHL): 12.5 µg/mL (≈ 29.2 µM); MIC [10]: 1.56 µg/mL (≈ 3.65 µM); MIC [11]: 1.56 µg/mL (≈ 3.65 µM)
CC(=O)NC=C[S+]([O-])C1=C(C(=O)O)N2C(=O)C(C(C)(C)O)C2C1 (stereo not shown) [KA-6643-A]	0.2 µg/mL (≈ 0.584 µM)	0.78 µg/mL (≈ 2.28 µM)	1.56 µg/mL (≈ 4.56 µM)	0.1 µg/mL (≈ 0.292 µM)	0.78 µg/mL (≈ 2.28 µM)	0.2 µg/mL (≈ 0.584 µM)	0.05 µg/mL (≈ 0.146 µM)	0.05 µg/mL (≈ 0.146 µM)	0.05 µg/mL (≈ 0.146 µM)	0.2 µg/mL (≈ 0.584 µM)	0.78 µg/mL (≈ 2.28 µM)	3.13 µg/mL (≈ 9.14 µM)	0.2 µg/mL (≈ 0.584 µM)	0.78 µg/mL (≈ 2.28 µM)	0.39 µg/mL (≈ 1.14 µM)	1.56 µg/mL (≈ 4.56 µM)	0.39 µg/mL (≈ 1.14 µM)	6.25 µg/mL (≈ 18.3 µM)	6.25 µg/mL (≈ 18.3 µM)	1.56 µg/mL (≈ 4.56 µM)	half-life [12, 17]: 1.38 days; half-life [12, 18]: 6 days; half-life [12, 19]: 7.79 days; half-life ([12]; pH 7.8): 4.58 days; half-life [12, 20]: 0.117 days; Solubility in solvent (Solubility in solvent; [21]): substantially insoluble; Solubility in solvent (Solubility in solvent; water): Readily soluble; MIC (Serratia marcescens NHL): 0.2 µg/mL (≈ 0.584 µM); MIC [10]: 0.39 µg/mL (≈ 1.14 µM); MIC [11]: 0.78 µg/mL (≈ 2.28 µM); Diameter of inhibiting zone (Citrobacter 24 (CS ase) [13]): 16.0 mm; Diameter of inhibiting zone [14]: 18.0 mm; I50 value [15]: 0.5 ng/mL
CC(=O)NC=C[S+]([O-])C1=C(C(=O)O)N2C(=O)C(C(C)(C)OS(=O)(=O)O)C2C1 (stereo not shown) [KA-6643-B]	6.25 µg/mL (≈ 14.8 µM)	6.25 µg/mL (≈ 14.8 µM)	12.5 µg/mL (≈ 29.6 µM)	3.13 µg/mL (≈ 7.41 µM)	6.25 µg/mL (≈ 14.8 µM)	3.13 µg/mL (≈ 7.41 µM)	1.56 µg/mL (≈ 3.69 µM)	3.13 µg/mL (≈ 7.41 µM)	1.56 µg/mL (≈ 3.69 µM)	6.25 µg/mL (≈ 14.8 µM)	6.25 µg/mL (≈ 14.8 µM)	12.5 µg/mL (≈ 29.6 µM)	6.25 µg/mL (≈ 14.8 µM)	12.5 µg/mL (≈ 29.6 µM)	12.5 µg/mL (≈ 29.6 µM)	50 µg/mL (≈ 118 µM)	12.5 µg/mL (≈ 29.6 µM)	25 µg/mL (≈ 59.2 µM)	50 µg/mL (≈ 118 µM)	100 µg/mL (≈ 237 µM)	half-life [12, 17]: 0.908 days; half-life [12, 18]: 8.75 days; half-life [12, 19]: 7.08 days; half-life ([12]; pH 7.8): 5.42 days; half-life [12, 20]: 0.329 days; Solubility in solvent (Solubility in solvent; [21]): substantially insoluble; Solubility in solvent (Solubility in solvent; water): Readily soluble; MIC (Serratia marcescens NHL): 6.25 µg/mL (≈ 14.8 µM); MIC [10]: 6.25 µg/mL (≈ 14.8 µM); MIC [11]: 6.25 µg/mL (≈ 14.8 µM); I50 value [15]: 12.8 ng/mL
CC(=O)N/C=C/[S+]([O-])C1=C(C(=O)O)N2C(=O)C(C(C)OS(=O)(=O)O)C2C1 (stereo not shown) [MM-4550]	–	–	–	–	–	–	–	–	–	–	–	–	–	–	–	–	–	–	–	–	half-life period t1/2 ([16]; pH 4): 5.5 h; half-life period t1/2 ([16]; pH 6): 18 h; half-life period t1/2 ([16]; pH 7): 10.5 h; half-life period t1/2 ([16]; pH 7.8): 8.5 h; half-life period t1/2 ([16]; pH 10): 19 h
